Experimental data reported in paper PMC9316063, “Chalcones as Anti-Glioblastoma Stem Cell Agent Alone or as Nanoparticle Formulation Using Carbon Dots as Nanocarrier” (Pharmaceutics, 2022).
“And” between values parts separate entries of the source, which are not always exact repeats. Equal values may be shown once. Read-outs that look alike come from different tables or passages of the source.

How the values were obtained:
Assay type in all cases: cell-based, human
Glio3 = test: MTS cell viability assay, GSC line Glio3; conditions: 72 h, read-out: Glio3 IC50
Excerpt: (§1) The generation and characterization of our GSC lines (Glio3, Glio9, Glio38) have been previously described. In brief, following patient consent, the resected tumors were mechanically and enzymatically dissociated, and red blood cells were removed using Red Cell Lysis buffer (SigmaAldrich, St. Louis, MO, USA). Cells were filtered and plated in a 3:1 ratio of Dulbecco’s Modified Eagle’s medium (DMEM): F12 (Gibco, Carlsbad, CA, USA) media supplemented with 1% penicillin and streptomcycin (penn/strep), 20 ng/mL each of human epidermal growth factor and human fibroblast growth factor, and 2% Gem21 NeuroPlex Serum-Free Supplement (Gemini Bioscience, Sacramento, CA, USA); a formulation consistent for the generation of GBM stem cell lines. Both Glio3 and Glio38 were derived from tumors prior to drug or radiation therapy and grow as neurospheres, whereas Glio9 was derived from a recurrent tumor, following chemo and radiotherapy, and grows adherent. The GBM cell line U87 MG (U87), purchased from ATCC (Manassas, VA, USA) and the pediatric GBM cell line SJ-GBM2 was obtained from Children’s Oncology Group. SJ-GBM2 cell line was derived from a child with glioblastoma post therapy and is used as part of a National Cancer Institute pediatric pre-clinical testing program. Both lines were maintained in RPMI media supplemented with 10% FBS and 1% penn/strep. Mesenchymal stem cells (MSCs) originally derived from human bone marrow aspirates were obtained from Thermo Fisher Scientific and maintained in MEM alpha supplemented with 20% FBS and 1% penn/strep. Prior to drug treatment, MSCs were moved to media with 10% FBS. Upon receipt U87, SJ-GBM2 and MSCs were immediately expanded with several aliquots frozen down for future use. These cell lines are not listed on the most recent NCBI database for misidentification and contamination of human cell lines. All cell lines were routinely tested for mycoplasma using LookOut mycoplasma PCR detection kit (Sigma-Aldrich, St. Louis, MO, USA) according to the manufacturer’s instructions and were maintained at 37 °C in a humidified 5% CO2 incubator.
(§2) The chalcones were dissolved in dimethyl sulfoxide (DMSO) at a concentration of 10 mM, vortexed and subsequently diluted to obtain 1 mM and 0.1 mM stock concentrations. C-dot-trans-chalcones were resuspended in supplement-free media (3:1 ratio DMEM/F12 for GSC experiments or RPMI for non-stem cell line experiments). Cell viability in response to drug treatment was determined using CellTiter 96 AQueous One Solution Cell Proliferation Assay, a colorimetric MTS assay kit (Promega, Madison, WI, USA). The GSCs were seeded into 96-well plates using modified neurosphere media containing 5% FBS at a density of 10,000 cells per well. MSCs and U87 cells were plated at 5000 cells/well while SJ-GBM2 cells were plated at 10,000 cells/well. The next day cells were treated with increasing concentrations of chalcones or C-dot-chalcone conjugate. Next, 72 h later, media was aspirated and 100 μL of a 1:5 solution of MTS to cell culture media was added to each well and incubated for 1–4 h. Optical density was measured at 490 nm using BioTek Synergy HT plate reader. Viability of drug treated cells is expressed as the percent viable cells relative to non-treated cells (100% viability). Experiments were done in triplicate.

Glio9 = test: MTS cell viability assay, GSC line Glio9; conditions: 72 h, read-out: Glio9 IC50
Excerpt: as §1, §2

Glio38 = test: MTS cell viability assay, GSC line Glio38; conditions: 72 h, read-out: Glio38 IC50
Excerpt: as §1, §2

[1] = system: GSC lines Glio3, Glio9 and Glio38; test: MTS cell viability assay, all three GSC lines together; conditions: for activity against GSCs: at the concentrations tested; for IC50: 72 h
Excerpt: as §1, §2

[2] = system: mesenchymal stem cells (MSC); test: MTS cell viability assay, mesenchymal stem cells; conditions: 72 h, estimated, >>10 indicates no cell death observed at any of the concentrations tested
Excerpt: as §1, §2

[3] = Homo sapiens, Mesenchymal stem cells
[4] = Homo sapiens, average of Glio3, Glio9, Glio38, read-out: average IC50 across the 3 GSC lines
[5] = Homo sapiens, in all three GSC lines, read-out: IC50 in all GSC lines (bound stated in text)
[6] = average of Glio3, Glio9, Glio38, read-out: average IC50 across the 3 GSC lines

COC(=O)COc1ccc(C(=O)/C=C/c2cc(OC)c(OC)c(OC)c2)cc1 [Chalcone 4e]
IC50 (Glio3; Homo sapiens, MTS, ±SEM): 10.4 ± 1.4 µM | IC50 (Glio9; Homo sapiens, MTS, ±SEM): 7 ± 1.3 µM | IC50 (Glio38; Homo sapiens, MTS, ±SEM): 18.4 µM | activity against GSCs [1]: active

Nc1ccc(C(=O)/C=C/c2ccc(Cl)cc2)cc1 [Chalcone 3w]
IC50 (Glio3; Homo sapiens, MTS, ±SEM): 12.3 ± 1.1 µM | IC50 (Glio9; Homo sapiens, MTS, ±SEM): 7 ± 0.3 µM | IC50 (Glio38; Homo sapiens, MTS, ±SEM): 7.9 ± 0.6 µM | IC50 [2, 3]: 80.1 µM | IC50 [1, 4]: 9.1 µM | IC50 [1, 5]: < 15 µM

Nc1ccc(C(=O)C=Cc2ccc(N3CCOCC3)cc2)cc1 [Chalcone 3m]
IC50 (Glio3; Homo sapiens, MTS, ±SEM): > 10 µM | IC50 (Glio9; Homo sapiens, MTS, ±SEM): > 10 µM | IC50 (Glio38; Homo sapiens, MTS, ±SEM): > 10 µM | activity against GSCs [1]: neither the morpholino or the methoxymethoxy derivatives were active against GSCs

CN(C)c1ccc(/C=C/C(=O)c2ccc(N)cc2)cc1 [Chalcone 3n]
IC50 (Glio3; Homo sapiens, MTS, ±SEM): > 10 µM | IC50 (Glio9; Homo sapiens, MTS, ±SEM): > 10 µM | IC50 (Glio38; Homo sapiens, MTS, ±SEM): > 10 µM | activity against GSCs [1]: inactive at the concentrations tested

COc1cc(/C=C/C(=O)c2ccc(OC(C)=O)cc2)cc(OC)c1OC [Chalcone 4d]
IC50 (Glio3; Homo sapiens, MTS, ±SEM): 7.7 ± 0.4 µM | IC50 (Glio9; Homo sapiens, MTS, ±SEM): 6.2 ± 0.9 µM | IC50 (Glio38; Homo sapiens, MTS, ±SEM): 6.9 ± 0.3 µM | IC50 [2, 3]: > 10 µM | IC50 [1, 5]: < 10 µM

COc1cccc(/C=C/C(=O)c2ccc(O)cc2)c1OC [Chalcone 4a]
IC50 (Glio3; Homo sapiens, MTS, ±SEM): 11.4 ± 0.9 µM | IC50 (Glio9; Homo sapiens, MTS, ±SEM): 14.2 ± 3 µM | IC50 (Glio38; Homo sapiens, MTS, ±SEM): 9.1 ± 0.7 µM | IC50 [2, 3]: > 10 µM

Nc1ccc(C(=O)/C=C/c2ccoc2)cc1 [Chalcone 3s]
IC50 (Glio3; Homo sapiens, MTS, ±SEM): > 10 µM | IC50 (Glio9; Homo sapiens, MTS, ±SEM): > 10 µM | IC50 (Glio38; Homo sapiens, MTS, ±SEM): > 10 µM

CCOc1cc(C=CC(=O)c2ccc(N)cc2)ccc1O [Chalcone 3j]
IC50 (Glio3; Homo sapiens, MTS, ±SEM): > 10 µM | IC50 (Glio9; Homo sapiens, MTS, ±SEM): > 10 µM | IC50 (Glio38; Homo sapiens, MTS, ±SEM): > 10 µM | activity against GSCs [1]: not active at concentrations tested

Nc1ccc(C(=O)/C=C/c2cccc(Br)c2)cc1 [Chalcone 3x]
IC50 (Glio3; Homo sapiens, MTS, ±SEM): 9.3 ± 1.1 µM | IC50 (Glio9; Homo sapiens, MTS, ±SEM): 7 ± 0.5 µM | IC50 (Glio38; Homo sapiens, MTS, ±SEM): 5.9 ± 0.8 µM | IC50 [2, 3]: 28.1 µM | IC50 [1, 4]: 7.4 µM | IC50 [1, 5]: < 10 µM

COc1cc(/C=C/C(=O)c2ccc(N)cc2)cc(OC)c1O [Chalcone 3k]
IC50 (Glio3; Homo sapiens, MTS, ±SEM): > 10 µM | IC50 (Glio9; Homo sapiens, MTS, ±SEM): > 10 µM | IC50 (Glio38; Homo sapiens, MTS, ±SEM): > 10 µM | activity against GSCs [1]: not active at concentrations tested | activity against GSCs ([1]; listed as 4k): eliminates activity

COc1cc(/C=C/C(=O)c2ccc(O)cc2)cc(OC)c1 [Chalcone 4b]
IC50 (Glio3; Homo sapiens, MTS, ±SEM): 6.7 ± 0.2 µM | IC50 (Glio9; Homo sapiens, MTS, ±SEM): 7 ± 0.4 µM | IC50 (Glio38; Homo sapiens, MTS, ±SEM): 6.4 ± 0.4 µM | IC50 [2, 3]: 17.1 µM | IC50 [1, 5]: < 10 µM

COCOc1ccc(C=CC(=O)c2ccc(N)cc2)cc1OC [Chalcone 3h]
IC50 (Glio3; Homo sapiens, MTS, ±SEM): > 10 µM | IC50 (Glio9; Homo sapiens, MTS, ±SEM): > 10 µM | IC50 (Glio38; Homo sapiens, MTS, ±SEM): > 10 µM | activity against GSCs [1]: not active at concentrations tested

Nc1ccc(C(=O)/C=C/c2ccco2)cc1 [Chalcone 3r]
IC50 (Glio3; Homo sapiens, MTS, ±SEM): > 10 µM | IC50 (Glio9; Homo sapiens, MTS, ±SEM): > 10 µM | IC50 (Glio38; Homo sapiens, MTS, ±SEM): > 10 µM

Nc1ccc(C(=O)/C=C/c2ccccn2)cc1 [Chalcone 3q]
IC50 (Glio3; MTS, ±SEM): 8.3 ± 0.7 µM | IC50 (Glio9; MTS, ±SEM): 6.6 ± 0.5 µM | IC50 (Glio38; MTS, ±SEM): 6.6 ± 0.7 µM | IC50 [2]: > 10 µM | IC50 [1, 6]: 7.2 ± 0.5 µM

COc1ccc(OC)c(/C=C/C(=O)c2ccc(N)cc2)c1 [Chalcone 3c]
IC50 (Glio3; Homo sapiens, MTS, ±SEM): 12 ± 1.8 µM | IC50 (Glio9; Homo sapiens, MTS, ±SEM): 9.3 ± 0.6 µM | IC50 (Glio38; Homo sapiens, MTS, ±SEM): 10.4 ± 2 µM | IC50 [2, 3]: > 10 µM | IC50 [1, 5]: < 15 µM

COc1cc(/C=C/C(=O)c2ccc(NC(C)=O)cc2)cc(OC)c1 [Chalcone 3g]
IC50 (Glio3; Homo sapiens, MTS, ±SEM): 6.2 ± 1.3 µM | IC50 (Glio9; Homo sapiens, MTS, ±SEM): 4.8 ± 0.6 µM | IC50 (Glio38; Homo sapiens, MTS, ±SEM): 5.4 ± 0.6 µM | IC50 [2, 3]: 7.4 µM | IC50 [1, 5]: < 10 µM | activity against GSCs [1]: active

Nc1ccc(C(=O)/C=C/c2ccc(O)cc2)cc1 [Chalcone 3i]
IC50 (Glio3; Homo sapiens): > 10 µM | IC50 (Glio9; Homo sapiens): > 10 µM | IC50 (Glio38; Homo sapiens): > 10 µM | activity against GSCs [1]: not active at concentrations tested

3,4,5-trimethoxy chalcone [Chalcone 3e]
IC50 (Glio3; MTS, ±SEM): 10.9 ± 0.8 µM | IC50 (Glio9; MTS, ±SEM): 8.9 ± 1.6 µM | IC50 (Glio38; MTS, ±SEM): 9.2 ± 0.8 µM | IC50 [2]: 46.7 µM | IC50 ([2]; listed as 4′-amino-trimethoxy chalcone): ~50 µM | IC50 [1, 6]: < 10 µM and 9.7 µM | IC50 ([1]; in all three GSC lines, read-out: IC50 in all GSC lines (bound stated in text)): < 15 µM

Nc1ccc(C(=O)/C=C/c2cccc(Cl)c2)cc1 [Chalcone 3v]
IC50 (Glio3; Homo sapiens, MTS, ±SEM): 9.1 ± 0.6 µM | IC50 (Glio9; Homo sapiens, MTS, ±SEM): 5.8 ± 0.9 µM | IC50 (Glio38; Homo sapiens, MTS, ±SEM): 6.7 ± 0.6 µM | IC50 [2, 3]: 25.7 µM | IC50 [1, 4]: 7.2 µM | IC50 [1, 5]: < 10 µM

COc1ccc(/C=C/C(=O)c2ccc(N)cc2)cc1OC [Chalcone 3b]
IC50 (Glio3; Homo sapiens, MTS, ±SEM): > 10 µM | IC50 (Glio9; Homo sapiens, MTS, ±SEM): > 10 µM | IC50 (Glio38; Homo sapiens, MTS, ±SEM): > 10 µM

COc1cc(/C=C/C(=O)c2ccc(OCC(=O)O)cc2)cc(OC)c1OC [Chalcone 4f]
IC50 (Glio3; Homo sapiens, MTS, ±SEM): > 10 µM | IC50 (Glio9; Homo sapiens, MTS, ±SEM): > 10 µM | IC50 (Glio38; Homo sapiens, MTS, ±SEM): > 10 µM | activity against GSCs [1]: active

COc1ccc(OC)c(/C=C/C(=O)c2ccc(NC(C)=O)cc2)c1 [Chalcone 3d]
IC50 (Glio3; Homo sapiens, MTS, ±SEM): 6.9 ± 1.6 µM | IC50 (Glio9; Homo sapiens, MTS, ±SEM): 5.5 ± 1.1 µM | IC50 (Glio38; Homo sapiens, MTS, ±SEM): 7.9 ± 1.7 µM | IC50 [2, 3]: 16.8 µM | IC50 [1, 5]: < 10 µM | activity against GSCs [1]: active

Nc1ccc(C(=O)/C=C/c2c[nH]c3ccccc23)cc1 [Chalcone 3t]
IC50 (Glio3; Homo sapiens, MTS, ±SEM): > 10 µM | IC50 (Glio9; Homo sapiens, MTS, ±SEM): > 10 µM | IC50 (Glio38; Homo sapiens, MTS, ±SEM): > 10 µM

COc1cc(/C=C/C(=O)c2ccc(N)cc2)ccc1O [Chalcone 3l]
IC50 (Glio3; Homo sapiens, MTS, ±SEM): > 10 µM | IC50 (Glio9; Homo sapiens, MTS, ±SEM): > 10 µM | IC50 (Glio38; Homo sapiens, MTS, ±SEM): > 10 µM

Nc1ccc(C(=O)/C=C/c2ccccn2)cc1 [Chalcone 3p]
IC50 (Glio3; Homo sapiens, MTS, ±SEM): 6.6 ± 1.2 µM | IC50 (Glio9; Homo sapiens, MTS, ±SEM): 5.2 ± 0.5 µM | IC50 (Glio38; Homo sapiens, MTS, ±SEM): 6.4 ± 2 µM | IC50 [2, 3]: 8 µM | IC50 [1, 4]: 6.1 ± 0.4 µM | IC50 [1, 5]: < 10 µM

COc1cc(/C=C/C(=O)c2cccc(N)c2)cc(OC)c1OC [Chalcone 5a, 3′-Amino-3,4,5-trimethoxychalcone]
IC50 (Glio3; Homo sapiens, MTS, ±SEM): 8 ± 1.5 µM | IC50 (Glio9; Homo sapiens, MTS, ±SEM): 5.1 ± 0.6 µM | IC50 (Glio38; Homo sapiens, MTS, ±SEM): 5 ± 0.8 µM | IC50 [2, 3]: 5.5 µM
